In US9642835B2, “Modulators of GTPase and use in relevant treatment” (STC.UNM, priority 2010, dated 2017):
Read-outs that look alike come from different tables or passages of the source.

What was measured:
[1] = tested on: Cdc42, Rab2, Rab7, activated Rac1Q61L, Rac1, and H-Ras; assay: Multiplexed primary screen, fluorescent GTP binding; settings: 10 μM compound
Procedure: Multiplex screening was performed by measuring GTP-binding activities of six GTPases (Cdc42, Rab2, Rab7, activated Rac1Q61L, Rac1, and H-Ras) simultaneously using special glutathione (GSH) bead sets having varied fluorescence intensities at a fixed wavelength^38. Individual GST-GTPase chimeras were tested against approximately 200,000 small molecules from the Molecular Libraries Small Molecule Repository (MLSMR). Results of fluorescent GTP-binding from the entire primary screen are summarized in the open access Pubchem database as required for projects conducted under the Roadmap Initiative (AID 757-761, 764). […] In total 1877 compounds/194,635 were identified as activators or inhibitors in the primary screen. On the order of 100-500 compounds were found active per GTPase target, enabling an unprecedented, comprehensive evaluation of small molecules active against various Ras-related GTPase family members. Here we report one compound active specifically on Cdc42 and structure activity relationships determined through chemical synthesis.
Multiplex analysis of small GTPases, were performed as we have described previously {Surviladze, 2009}. […] Flow cytometric light scatter and fluorescence emission at 530+/−20 nm (FL1) and 665+/−10 nm (FL8) were collected on a Cyan ADP flow cytometer (Beckman Coulter, Fullerton, Calif.). The resulting time-dependent data (one file per plate) were analyzed using IDLQuery software to determine the compound activity in each well. […] Gating based on FL8 emission distinguishes the beads coated with different proteins, and the median fluorescence per bead population was calculated. […]
For detection of GTP binding to small G-proteins we used bead-based multiplex flow cytometry assay {Surviladze, 2009}. […] Six individual GST-GTPases representative of Rho, Ras and Rab branches of the Ras-related GTPase family (Cdc42 wt, Rac1 wt, Rac1Q61L, Rab2 wt, Rab7 wt, and H-Ras wt) were first bound to GSH-beads of a particular fluorescence intensity. […]

Cdc42 ACT (Cdc42Q61L) = Cdc42 ACT (Cdc42Q61L) (Homo sapiens, UniProt P60953, Q61L); assay: Bead-based flow cytometry dose response, BODIPY-FL-GTP binding
Sequence of Cdc42 ACT (Cdc42Q61L) (P60953 whole entry Q61L): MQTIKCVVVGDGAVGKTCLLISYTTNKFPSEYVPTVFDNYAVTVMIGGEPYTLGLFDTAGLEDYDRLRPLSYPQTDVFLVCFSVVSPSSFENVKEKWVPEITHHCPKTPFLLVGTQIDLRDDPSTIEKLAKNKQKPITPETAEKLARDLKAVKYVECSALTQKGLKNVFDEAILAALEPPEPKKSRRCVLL
Procedure: (§1) Bead sets for multiplex assays were custom synthesized by Duke Scientific Corp (Fremont, Calif.), but may now be ordered from Thermo/Fisher. […] Negative controls, contained the bead mixture with fluorescent GTP, 0.5 mM unlabeled GTP as a competitor, and 1% DMSO. […] The resulting time-dependent data (one file per plate) were analyzed using IDLQuery software to determine the compound activity in each well. Gating based on forward scatter (FS) and side scatter (SS) parameters was used to identify singlet bead populations. Gating based on FL8 emission distinguishes the beads coated with different proteins, and the median fluorescence per bead population was calculated. […] Baselines were set to 100% based on measurements from the 1% DMSO containing positive controls as further described in PubChem. {PubChem #72}
(§2) Briefly, compounds were serially diluted 1:3 a total of eight times from a starting concentration of 10 mM giving a 9-point dilution series in DMSO. The final concentrations of inhibitors in the assay ranged from 10 nM to 100 μM. Dose-response analyses were examined in the presence of NP-HPS buffer containing: a) 1 mM EDTA; or b) 1 mM MgCl2. […] For assays with EDTA we used one multiplex (Rab7 wt, Rab2 wt, H-Ras wt, H-RasG12V, Cdc42 wt, and Cdc42Q61L) and 3 single-plexes (for Rac1 wt, Rac1 Q61L and GST-GFP).
(§3) GTPase activators were identified on the basis of an increase in fluorescent GTP-binding.
(§4) In experiments including magnesium, six GST-GTPases were assayed simultaneously in a single multiplex (Rac1 wt, Rac1Q61L, RhoA wt, RhoAL63, Cdc42 wt and Cdc42Q61L) and 1 nM BODIPY-FL-GTP binding was measured in the presence or absence of the serial drug dilution series. Each dose response series was run in duplicate.

Cdc42 WT = target: T1, Cdc42 WT (Homo sapiens, UniProt P60953); assay: as above; settings: for EC50: read-out: Cdc42 WT EC50; for Emax: read-out: Cdc42 WT Efficacy
T1 construct: purchased Cytoskeleton
T1 sequence (P60953 whole entry): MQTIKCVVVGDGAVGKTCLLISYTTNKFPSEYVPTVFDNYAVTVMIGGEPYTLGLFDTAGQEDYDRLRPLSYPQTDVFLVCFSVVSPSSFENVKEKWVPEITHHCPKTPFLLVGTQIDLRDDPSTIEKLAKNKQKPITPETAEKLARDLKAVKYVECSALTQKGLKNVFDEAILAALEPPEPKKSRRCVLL
Procedure: as §1, §2, §3, §4

wild-type Cdc42 = target: T2, wild-type Cdc42 (Homo sapiens, UniProt P60953); assay: Equilibrium binding assay of BODIPY-FL-GTP; settings: 1.5 nM substrate, 1 mM MgCl2; read-out: IC50, inhibition of fluorescent GTP binding to Cdc42 wt
T2 construct: purchased Cytoskeleton
T2 sequence (P60953 whole entry): as above
Procedure: Changes in GTP binding affinity (Kd) and Bmax in the presence of a given compound were measured in multiplex (Cdc42, Cdc42Q61L, Rab2, Rab7, H-Ras and H-RasG12V) and single-plex formats (Rac1, Rac1Q61L and GST-GFP). GTPases and the GST-GFP control were individually bound to glutathione beads overnight at 4° C., washed with HPSE buffer, then resuspended together or assayed individually in the same buffer containing DTT and BSA. Bound GTPases were analyzed by mixing 5 μl protein-bound beads with 2.5-100 nM BODIPY-GTP in a total volume of 10 μl and incubating with rotation at 4° C. for 90 min. DMSO controls and samples treated with 10 μM of each test compound were run in parallel. Bound fluorescent nucleotide was measured using a Cyan ADP flow cytometer. Data were converted to ASCII format using IDLeQuery, exported and analyzed using Prism (GraphPad Software, Inc., San Diego, Calif.) non-linear, one-site binding.
Wild-type GST-Cdc42 (4 μM) was bound to GSH-beads overnight at 4° C. Cdc42 on GSH-beads was depleted of nucleotide by incubating with 10 mM EDTA containing buffer for 20 min at 30° C., washing twice with NP-HPS buffer, then re-suspended in the same buffer containing 1 mM EDTA/or 1 mM MgCl2, 1 mM DTT and 0.1% BSA. […] Samples incubated at 4° C. for 45 min and binding of fluorescent nucleotide to enzyme measured using an Accuri flow cytometer. […]

[2] = Table 6, R3 analogs, read-out: Cdc42 ACT EC50
[3] = Table 5, R2 analogs, read-out: Cdc42 ACT EC50

| EC50 (Cdc42 ACT (Cdc42Q61L); [2]) [µM] | EC50 (Cdc42 WT; Table 6, R3 analogs) [µM] | Emax (Cdc42 WT; Table 6, R3 analogs) [%] | EC50 (Cdc42 WT; Table 5, R2 analogs) [µM] | Emax (Cdc42 WT; Table 5, R2 analogs) [%] | Structure (SMILES) | further results |
| --- | --- | --- | --- | --- | --- | --- |
|  |  |  |  |  | O=C(O)c1cccnc1SCCc1ccccc1 [CID888706] | Outcome of primary screening [1]: activator |
| 16.8 | 31.6 | 56 |  |  | NS(=O)(=O)c1ccc(N2N=C(c3ccccc3)CC2c2ccccc2)cc1 (stereo not drawn) [CID 2837695] |  |
| 9.6 | 4.9 | 71 |  |  | NS(=O)(=O)c1ccc(N2N=C(c3ccccc3)CC2c2cccc(F)c2)cc1 (stereo not drawn) [CID 12005853] |  |
| 3.6 | 2.8 | 69 |  |  | NS(=O)(=O)c1ccc(N2N=C(c3ccccc3)CC2c2ccc(Cl)cc2)cc1 (stereo not drawn) [CID 13927311] |  |
| 1.7 | 1.1 | 56 |  |  | NS(=O)(=O)c1ccc(N2N=C(c3ccccc3)CC2c2ccc(Br)cc2)cc1 (stereo not drawn) [CID 13927312, 4-[3-(4-bromophenyl)-5-phenyl-3,4-dihydropyrazol-2-yl]benzene sulfonamide] |  |
|  |  |  | > 100 | 17 | COc1ccc(C2CC(C)=NN2c2ccc(S(N)(=O)=O)cc2)cc1 (stereo not drawn) [CID 14870296] | EC50 (Cdc42 ACT (Cdc42Q61L); [3]): > 100 µM |
|  |  |  | 2.6 | 38 | COc1ccc(C2=NN(c3ccc(S(N)(=O)=O)cc3)C(c3ccc(OC)cc3)C2)cc1 (stereo not drawn) [CID 15201811] | EC50 (Cdc42 ACT (Cdc42Q61L); [3]): 2.5 µM |
| 78.9 | 22.5 | 45 |  |  | COc1ccccc1C1CC(c2ccccc2)=NN1c1ccc(S(N)(=O)=O)cc1 (stereo not drawn) [CID 42628035] |  |
|  |  |  | 1.5 | 50 | COc1ccc(C2CC(c3cccc(OC)c3)=NN2c2ccc(S(N)(=O)=O)cc2)cc1 (stereo not drawn) [CID 44143698, 4-[5-(3-methoxyphenyl)-3-(4-methoxyphenyl)-3,4-dihydropyrazol-2-yl]benzenesulfonamide] | EC50 (Cdc42 ACT (Cdc42Q61L); [3]): 1.6 µM |
| 4.3 | 4.8 | 53 |  |  | COc1cccc(C2CC(c3ccccc3)=NN2c2ccc(S(N)(=O)=O)cc2)c1 (stereo not drawn) [CID 44143701] |  |
|  |  |  | 6 | 59 | COc1ccc(C2CC(c3ccccc3OC)=NN2c2ccc(S(N)(=O)=O)cc2)cc1 (stereo not drawn) [CID 44143702] | EC50 (Cdc42 ACT (Cdc42Q61L); [3]): 5.5 µM; Cdc42 WT Efficacy (Cdc42 WT; Table 5, R2 analogs): 59% |
| 3.7 | 3.3 | 55 |  |  | NS(=O)(=O)c1ccc(N2N=C(c3ccccc3)CC2c2cccc(Br)c2)cc1 (stereo not drawn) [CID 44143703] |  |
| 13.6 | 16.6 | 55 |  |  | Cc1ccccc1C1CC(c2ccccc2)=NN1c1ccc(S(N)(=O)=O)cc1 (stereo not drawn) [CID 44143704] |  |
|  |  |  | 7.3 | 47 | COc1ccc(C2CC(c3ccsc3)=NN2c2ccc(S(N)(=O)=O)cc2)cc1 (stereo not drawn) [CID 44143713] | EC50 (Cdc42 ACT (Cdc42Q61L); [3]): 7.3 µM |
| 3.6 | 3.3 | 64 |  |  | NS(=O)(=O)c1ccc(N2N=C(c3ccccc3)CC2c2cccc(Cl)c2)cc1 (stereo not drawn) [CID 44193696] |  |
| 7.4 | 7.2 | 39 |  |  | NS(=O)(=O)c1ccc(N2N=C(c3ccccc3)CC2c2ccccc2Cl)cc1 (stereo not drawn) [CID 44193697] |  |
|  |  |  | > 100 | 33 | COc1ccc(C2CC(C(C)(C)C)=NN2c2ccc(S(N)(=O)=O)cc2)cc1 (stereo not drawn) [CID 44193701] | EC50 (Cdc42 ACT (Cdc42Q61L); [3]): > 100 µM |
| > 100 | > 100 |  |  |  | NS(=O)(=O)c1ccc(N2N=C(c3ccccc3)CC2c2ccccc2Br)cc1 (stereo not drawn) [CID 44216862] |  |
|  |  |  |  |  | COc1ccc(C2CC(c3ccccc3)=NN2c2ccc(S(N)(=O)=O)cc2)cc1OC (stereo not drawn) [MLS000862339] | IC50 (wild-type Cdc42): 0.4 µM; Outcome of primary screening [1]: specific inhibitors |

| Structure (SMILES) | EC50 (Cdc42 ACT (Cdc42Q61L); [2]) [µM] | EC50 (Cdc42 WT; Table 6, R3 analogs) [µM] | Emax (Cdc42 WT; Table 6, R3 analogs) [%] | EC50 (Cdc42 WT; Table 5, R2 analogs) [µM] | Emax (Cdc42 WT; Table 5, R2 analogs) [%] | further results |
| --- | --- | --- | --- | --- | --- | --- |
| COc1ccc(C2CC(c3ccccc3)=NN2c2ccc(S(N)(=O)=O)cc2)cc1OC (stereo not drawn) [CID 2971684] |  | 5.7 | 75 |  |  | EC50 (Cdc42 ACT (Cdc42Q61L)): 6.1 µM |
| COc1ccc(C2CC(c3cccs3)=NN2c2ccc(S(N)(=O)=O)cc2)cc1 (stereo not drawn) [CID 44143712] |  |  |  | 2.9 | 57 | EC50 (Cdc42 ACT (Cdc42Q61L)): 4 µM |
